The source of these data is ChEMBL document CHEMBL4765450, “The components and activities analysis of a novel anticoagulant candidate dHG-5” (Eur J Med Chem, 2020).

For assay [1], the target named is T1, Coagulation factor IX (Homo sapiens, UniProt P00740). The assay can be described thus: Inhibition of factor 9a (unknown origin) binding to immobilized biotinylated oHG-11 assessed as activity potency of oligosaccharides multiplied by the percentage of oligosaccharides in dHG-5 by biolayer interferometry relative to dHG-5. A general note: In BLI a coated tip is dipped into the sample, and binding shifts an interference pattern.
T1 sequence (P00740 47-191 limits assumed): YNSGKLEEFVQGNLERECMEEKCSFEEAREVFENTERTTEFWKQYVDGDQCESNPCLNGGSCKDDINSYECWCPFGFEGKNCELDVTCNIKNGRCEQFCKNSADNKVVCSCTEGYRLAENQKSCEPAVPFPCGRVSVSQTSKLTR
T1 sequence (P00740 227-461 limits assumed): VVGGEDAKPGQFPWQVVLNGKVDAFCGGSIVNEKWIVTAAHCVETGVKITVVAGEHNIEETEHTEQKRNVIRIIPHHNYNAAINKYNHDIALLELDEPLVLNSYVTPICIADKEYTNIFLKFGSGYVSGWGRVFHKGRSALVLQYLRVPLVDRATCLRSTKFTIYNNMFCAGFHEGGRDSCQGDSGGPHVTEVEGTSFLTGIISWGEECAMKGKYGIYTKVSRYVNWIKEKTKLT

For assay [2], the target named is T1, Coagulation factor IX. The assay can be described thus: Inhibition of factor 9a (unknown origin) binding to immobilized biotinylated oHG-11 by biolayer interferometry relative to dHG-5.
In assay [3] the test system is Rattus norvegicus. The assay can be described thus: Antithrombotic activity in thromboplastin and stasis-induced Sprague-Dawley rat deep venous thrombosis model assessed as reduction in venous thrombosis at 1.66 mg/kg, sc administered 1 hr prior to thromboplastin addition for 20 secs followed by establishment of stasis for 20 mins relative to dHG-5. The settings on record: time 80.33 min, 1.339 h. The assay is classed as functional.

Assay [4] deals with Coagulation factor X (Homo sapiens) (UniProt P00742). Kind of assay: Inhibition of factor 10a (unknown origin) at IC90 preincubated for 1 min followed by chromogenic substrate addition and measured for 2 mins in presence of AT-III relative to control. The settings on record: time 3.0 min.
Coagulation factor X (Homo sapiens), sequence (P00742 41-179 limits assumed): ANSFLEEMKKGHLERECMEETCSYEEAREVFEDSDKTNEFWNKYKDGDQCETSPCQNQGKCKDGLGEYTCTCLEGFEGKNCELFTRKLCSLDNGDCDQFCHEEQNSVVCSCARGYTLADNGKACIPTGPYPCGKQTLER
Coagulation factor X (Homo sapiens), sequence (P00742 235-488 limits assumed): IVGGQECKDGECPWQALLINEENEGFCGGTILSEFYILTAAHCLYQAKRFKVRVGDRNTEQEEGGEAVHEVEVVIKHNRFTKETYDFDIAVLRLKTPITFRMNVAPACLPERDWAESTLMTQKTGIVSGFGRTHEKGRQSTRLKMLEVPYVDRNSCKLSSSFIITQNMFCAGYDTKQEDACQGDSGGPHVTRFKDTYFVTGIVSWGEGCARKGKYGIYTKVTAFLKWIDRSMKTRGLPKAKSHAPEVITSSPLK
Assay [5] concerns the target T2, Coagulation factor XII (Homo sapiens) (UniProt P00748).
T2 sequence (whole entry): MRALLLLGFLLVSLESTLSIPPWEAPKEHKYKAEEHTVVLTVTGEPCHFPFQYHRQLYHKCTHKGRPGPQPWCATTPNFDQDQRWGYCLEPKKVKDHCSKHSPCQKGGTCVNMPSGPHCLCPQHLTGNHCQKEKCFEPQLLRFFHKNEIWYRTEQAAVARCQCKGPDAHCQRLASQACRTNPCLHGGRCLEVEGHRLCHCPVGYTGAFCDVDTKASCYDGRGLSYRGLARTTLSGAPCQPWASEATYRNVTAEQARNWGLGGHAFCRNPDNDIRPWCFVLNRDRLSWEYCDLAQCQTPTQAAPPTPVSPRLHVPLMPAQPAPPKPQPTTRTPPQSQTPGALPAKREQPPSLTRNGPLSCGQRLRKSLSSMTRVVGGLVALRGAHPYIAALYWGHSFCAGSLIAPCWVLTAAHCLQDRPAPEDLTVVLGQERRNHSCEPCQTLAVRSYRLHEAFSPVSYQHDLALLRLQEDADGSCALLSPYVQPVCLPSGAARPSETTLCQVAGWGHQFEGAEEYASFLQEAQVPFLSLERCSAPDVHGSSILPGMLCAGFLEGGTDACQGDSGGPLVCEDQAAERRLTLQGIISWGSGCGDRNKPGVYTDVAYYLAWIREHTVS
The assay can be described thus: Inhibition of factor 12a (unknown origin) at IC50 using kallikrein chromogenic substrate preincubated for 1 min followed by chromogenic substrate addition and measured for 2 mins in presence of AT-III. The settings on record: time 3.0 min.

Assay [6] deals with Coagulation factor X (Homo sapiens) (UniProt P00742). The assay can be described thus: Inhibition of factor 10a (unknown origin) at IC50 preincubated for 1 min followed by chromogenic substrate addition and measured for 2 mins. The settings on record: time 3.0 min.
Assay [7] deals with T3, Coagulation factor IX/VIII (Homo sapiens) (UniProt P00740+P00451). The assay can be described thus: Inhibition of human citrated plasma iXase (factor 8a-factor 9a complex) assessed as activity potency of oligosaccharides multiplied by the percentage of oligosaccharides in dHG-5 preincubated for 2 mins followed by factor 10 addition and measured after 1 min by FXa chromogenic substrate SXa-11 based assay relative to dHG-5. The assay is classed as protein-complex assay. The settings on record: time 3.0 min.

The target of assay [8] is T2, Coagulation factor XII (Homo sapiens). The assay can be described thus: Inhibition of factor 12a (unknown origin) at IC50 using kallikrein chromogenic substrate preincubated for 1 min followed by chromogenic substrate addition and measured for 2 mins. The note with it: time 3.0 min.
Assay [9] addresses T3, Coagulation factor IX/VIII (Homo sapiens). Kind of assay: Inhibition of human citrated plasma iXase (factor 8a-factor 9a complex) preincubated for 2 mins followed by factor 10 addition and measured after 1 min by FXa chromogenic substrate SXa-11 based assay relative to dHG-5. The note with it: time 3.0 min. It counts as protein-complex assay.
The target in assay [10] is Prothrombin (Homo sapiens) (UniProt P00734). The assay can be described thus: Inhibition of factor 2a (unknown origin) at IC50 preincubated for 1 min followed by chromogenic substrate addition and measured for 2 mins. The note with it: time 3.0 min.
Assay [11] concerns the target Coagulation factor XI (Homo sapiens) (UniProt P03951). Kind of assay: Inhibition of factor 11a (unknown origin) at IC50 using S-2366 as substrate preincubated for 1 min followed by chromogenic substrate addition and measured for 2 mins in presence of AT-III. The settings on record: time 3.0 min.
For assay [12], the target named is Prothrombin (Homo sapiens) (UniProt P00734). Kind of assay: Inhibition of factor 2a (unknown origin) at IC50 preincubated for 1 min followed by chromogenic substrate addition and measured for 2 mins in presence of AT-III. The note with it: time 3.0 min.
For assay [13], the target named is Coagulation factor XI (Homo sapiens) (UniProt P03951). Kind of assay: Inhibition of factor 11a (unknown origin) at IC50 using S-2366 as substrate preincubated for 1 min followed by chromogenic substrate addition and measured for 2 mins. The note with it: time 3.0 min.
Coagulation factor XI (Homo sapiens), sequence (P03951 19-387 limits assumed): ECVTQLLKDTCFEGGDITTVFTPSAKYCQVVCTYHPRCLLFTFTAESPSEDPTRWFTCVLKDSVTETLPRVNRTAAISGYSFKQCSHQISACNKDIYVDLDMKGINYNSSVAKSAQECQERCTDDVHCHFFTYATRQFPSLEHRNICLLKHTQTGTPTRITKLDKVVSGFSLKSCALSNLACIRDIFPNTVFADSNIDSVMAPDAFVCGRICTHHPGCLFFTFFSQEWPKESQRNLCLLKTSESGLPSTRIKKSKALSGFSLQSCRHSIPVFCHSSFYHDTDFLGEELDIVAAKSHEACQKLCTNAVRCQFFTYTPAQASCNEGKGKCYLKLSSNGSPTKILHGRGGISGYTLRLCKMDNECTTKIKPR
Coagulation factor XI (Homo sapiens), sequence (P03951 388-625 limits assumed): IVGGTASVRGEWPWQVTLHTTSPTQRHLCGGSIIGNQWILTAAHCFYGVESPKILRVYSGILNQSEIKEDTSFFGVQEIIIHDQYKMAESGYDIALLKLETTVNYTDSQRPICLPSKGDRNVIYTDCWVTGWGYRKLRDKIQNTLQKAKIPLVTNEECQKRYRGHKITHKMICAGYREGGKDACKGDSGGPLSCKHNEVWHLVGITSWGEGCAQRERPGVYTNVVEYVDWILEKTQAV
For assay [14], the target named is T4, Coagulation factor VII (Homo sapiens) (UniProt P08709).
T4 sequence (whole entry): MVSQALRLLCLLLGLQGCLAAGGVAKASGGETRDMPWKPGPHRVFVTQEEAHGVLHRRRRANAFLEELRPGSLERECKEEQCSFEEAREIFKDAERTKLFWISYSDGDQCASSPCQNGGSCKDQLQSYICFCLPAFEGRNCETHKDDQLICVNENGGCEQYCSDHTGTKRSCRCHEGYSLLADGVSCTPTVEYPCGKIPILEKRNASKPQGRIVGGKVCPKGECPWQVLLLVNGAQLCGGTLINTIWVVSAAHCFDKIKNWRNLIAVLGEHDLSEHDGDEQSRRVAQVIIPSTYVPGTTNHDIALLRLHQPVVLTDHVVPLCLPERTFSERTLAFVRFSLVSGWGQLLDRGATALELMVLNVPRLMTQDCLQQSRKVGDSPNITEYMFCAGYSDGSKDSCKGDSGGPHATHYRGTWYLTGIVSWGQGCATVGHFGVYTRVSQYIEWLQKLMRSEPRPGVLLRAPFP
The assay can be described thus: Inhibition of factor 7a (unknown origin) at IC50 using pefachrome factor VIIa as substrate preincubated for 1 min followed by chromogenic substrate addition and measured for 2 mins in presence of AT-III. The note with it: time 3.0 min.

The subject of assay [15] is Plasma. Kind of assay: Anticoagulation activity in human plasma assessed as drug level causing 20 times doubling of APTT preincubated for 2 mins followed by APTT reagent and measured after 3 mins by coagulometric method relative to dHG-5. The settings on record: time 5 min. It counts as functional.
For assay [16], the target named is T4, Coagulation factor VII (Homo sapiens). Kind of assay: Inhibition of factor 7a (unknown origin) at IC50 using pefachrome factor VIIa as substrate preincubated for 1 min followed by chromogenic substrate addition and measured for 2 mins. The note with it: time 3.0 min.
Assay [17] concerns the target Coagulation factor XI (Homo sapiens) (UniProt P03951). The assay can be described thus: Inhibition of factor 11a (unknown origin) at IC90 using S-2366 as substrate preincubated for 1 min followed by chromogenic substrate addition and measured for 2 mins in presence of AT-III. The note with it: time 3.0 min.
Assay [18] deals with Coagulation factor X (Homo sapiens) (UniProt P00742). Kind of assay: Inhibition of factor 10a (unknown origin) at IC50 preincubated for 1 min followed by chromogenic substrate addition and measured for 2 mins in presence of AT-III. The note with it: time 3.0 min.
Assay [19] concerns Rattus norvegicus. Kind of assay: Antithrombotic activity in thromboplastin and stasis-induced Sprague-Dawley rat deep venous thrombosis model assessed as reduction in venous thrombosis by measuring activity potency of oligosaccharides multiplied by the percentage of oligosaccharides in dHG-5 at 1.66 mg/kg, sc administered 1 hr prior to thromboplastin addition for 20 secs followed by establishment of stasis for 20 mins relative …. The assay is classed as functional. The note with it: time 80.33 min, 1.339 h.

Assay [20] deals with Plasma. Kind of assay: Anticoagulation activity in human plasma assessed as drug level causing 20 times doubling of APTT by measuring activity potency of oligosaccharides multiplied by the percentage of oligosaccharides in dHG-5 preincubated for 2 mins followed by APTT reagent and measured after 3 mins by coagulometric method relative to dHG-5. The note with it: time 5 min. The assay is classed as functional.

Assay [21] concerns the target Prothrombin (Homo sapiens) (UniProt P00734). The assay can be described thus: Inhibition of factor 2a (unknown origin) at IC90 preincubated for 1 min followed by chromogenic substrate addition and measured for 2 mins in presence of AT-III. The note with it: time 3.0 min.

Activity calls are given as the source filed them. The rule behind the calls is not given here.

As to `CC(=O)N[C@H]1[C@H](O[C@H]2[C@H](O[C@@H]3O[C@@H](C)[C@@H](OS(=O)(=O)[O-])[C@@H](OS(=O)(=O)O)[C@@H]3O)[C@@H](O)[C@H](O[C@@H]3[C@@H](NC(C)=O)[C@H](O[C@H]4[C@H](O[C@@H]5O[C@@H](C)[C@@H](OS(=O)(=O)[O-])[C@@H](OS(=O)(=O)O)[C@@H]5O)[C@@H](O)[C@H](O[C@@H]5[C@@H](NC(C)=O)[C@H](O[C@H]6[C@H](O[C@@H]7O[C@@H](C)[C@@H](OS(=O)(=O)[O-])[C@@H](OS(=O)(=O)O)[C@@H]7O)[C@@H](O)[C@H](O[C@@H]7[C@@H](NC(C)=O)[C@H](O[C@H]8[C@H](O[C@@H]9O[C@@H](C)[C@@H](OS(=O)(=O)[O-])[C@@H](OS(=O)(=O)O)[C@@H]9O)[C@@H](O)[C@H](O[C@@H]9[C@@H](NC(C)=O)[C@H](O[C@@H]([C@H](O[C@@H]%10O[C@@H](C)[C@@H](OS(=O)(=O)[O-])[C@@H](OS(=O)(=O)O)[C@@H]%10O)[C@@H](O)CO)[C@H](O)C(=O)O)O[C@H](COS(=O)(=O)[O-])[C@@H]9OS(=O)(=O)[O-])O[C@@H]8C(=O)O)O[C@H](COS(=O)(=O)[O-])[C@@H]7OS(=O)(=O)[O-])O[C@@H]6C(=O)[O-])O[C@H](COS(=O)(=O)[O-])[C@@H]5OS(=O)(=O)[O-])O[C@@H]4C(=O)[O-])O[C@H](COS(=O)(=O)[O-])[C@@H]3OS(=O)(=O)[O-])O[C@@H]2C(=O)[O-])O[C@H](COS(=O)(=O)[O-])[C@H](OS(=O)(=O)[O-])[C@@H]1O[C@@H]1O[C@H](C(=O)[O-])[C@@H](O[C@@H]2O[C@H](COS(=O)(=O)[O-])[C@H](OS(=O)(=O)[O-])[C@H](O[C@@H]3O[C@H](C(=O)[O-])[C@@H](O[C@@H]4O[C@H](COS(=O)(=O)[O-])[C@H](OS(=O)(=O)[O-])[C@H](O[C@@H]5O[C@H](C(=O)O)[C@@H](O[C@@H]6O[C@H](COS(=O)(=O)[O-])[C@H](OS(=O)(=O)[O-])[C@H](O[C@@H]7OC(C(=O)O)=C[C@H](O[C@@H]8O[C@@H](C)[C@@H](OS(=O)(=O)[O-])[C@@H](OS(=O)(=O)O)[C@@H]8O)[C@H]7O)[C@H]6NC(C)=O)[C@H](O[C@@H]6O[C@@H](C)[C@@H](OS(=O)(=O)[O-])[C@@H](OS(=O)(=O)O)[C@@H]6O)[C@H]5O)[C@H]4NC(C)=O)[C@H](O[C@@H]4O[C@@H](C)[C@@H](OS(=O)(=O)[O-])[C@@H](OS(=O)(=O)O)[C@@H]4O)[C@H]3O)[C@H]2NC(C)=O)[C@H](O[C@@H]2O[C@@H](C)[C@@H](OS(=O)(=O)[O-])[C@@H](OS(=O)(=O)O)[C@@H]2O)[C@H]1O.[Na+].[Na+].[Na+].[Na+].[Na+].[Na+].[Na+].[Na+].[Na+].[Na+].[Na+].[Na+].[Na+].[Na+].[Na+].[Na+].[Na+].[Na+].[Na+].[Na+].[Na+].[Na+].[Na+].[Na+].[Na+].[Na+].[Na+].[Na+].[Na+].[Na+]`, the Ratio at Coagulation factor IX [1] was 11.2 U; on Coagulation factor IX [2], 235 U; with Rattus norvegicus [3] it was 284.73 U; in [7], 19.1 U; in [9], 403 U; in the assay with Plasma [15], 319.64 U. The Ratio is on record as 13.38 U with Rattus norvegicus [19] and 15.15 U in the assay with Plasma [20]. In addition, the inhibition result in assay [4], in [5], in assay [6], in [8], in [10] and in assay [11] was “inactive” throughout. Moreover, the inhibition result in assay [12], in assay [13], in assay [14] and in assay [18] was “inactive” in each case. Also, the “inhibition (active/not active)” value in assay [16] is “inactive”. Also, the inhibition result in assay [17] and in [21] was “Active” each time.
